Data set [1] is described as follows: Pheromone diffusion duration by SPME pre-concentration and GCMS, closed temperature-controlled chamber (Example 1). Type of data set: physicochemical. The following applies: pine processionary pheromone; paraffin oil core, 1% pheromone by weight. An excerpt: FIG. 1: This graph represents the abundance of the main compound of the non-encapsulated pheromone after preconcentration using the Solid Phase Micro-Extraction (SPME) technique, separation of the pheromone compounds by gas chromatography and detection by mass spectrometry (GCMS) in a closed temperature-controlled chamber. FIG. 2: This graph represents the abundance of the main compound of the encapsulated pheromone after preconcentration using the Solid Phase Micro-Extraction (SPME) technique, separation of the pheromone compounds by gas chromatography and detection by mass spectrometry (GCMS) in a closed temperature-controlled chamber. An analytical method was developed to detect the pheromone's main compound. The low quantities of analytes led to the choice of a pre-concentration method known as Solid Phase Micro-Extraction (SPME) and Gas Chromatography-Mass Spectrometry (GCMS).

Data set [2] is described as follows: Closed system: study of thermodynamic equilibrium, SPME-GC/MS in sealed 20 mL flasks (Example 2). Type of data set: physicochemical. The following applies: closed 20 mL flask; European grapevine moth pheromone. Here is the method: In order to establish the diffusion profiles of the samples at short times and to obtain initial information on any differences between the capsules, a study was carried out in a closed system. The experiment consists of introducing the samples into 20 mL hermetically sealed flasks and following the evolution of the quantity extracted by the SPME fibre over time, until equilibrium is reached. Measurements were initially taken over short periods (one measurement every 45 minutes, corresponding to the analysis time) and then, once the maximum concentration had been reached, measurements were taken at longer intervals to ensure that equilibrium had been reached (one measurement every 2.5 hours). These tests were carried out using the European grapevine moth pheromone, (E)-7-(Z)-9-dodecadienyl acetate (C14H24O2).

For the compound `CC/C=C\C#CCCCCCCCCCCOC(C)=O` [Example 1 non-encapsulated pheromone, Z-13-hexadecen-11-yn-1-yl acetate], the “duration of the pheromone's diffusion” value in data set [1] was “less than 10 days”. Take `CC/C=C\C=C\CCCCCCOC(C)=O` [Example 2 non-encapsulated pheromone, (E)-7-(Z)-9-dodecadienyl acetate]: in data set [2], the “time until equilibrium is reached” value was over 50 h.
